Measurements taken from US4528380A, “5-(1-Propyl)n-butyl tetrazoles” (Delalande S.A., priority 1981, dated 1985).

Tests used:
[1] = system: mortality induced by bicucullin; test: Protection against mortality induced by intravenous bicucullin (anti-convulsive activity); type: in vivo; conditions: Mus musculus, ip; mice, compound i.p.; intravenous injection of 0.7 mg/kg of bicucullin; read-out: ED 50 against mortality induced by bicucullin
[2] = Acute toxicity, intraperitoneal, method of Miller and Tainter; conditions: mouse, in vivo, ip, mice, read-out: Acute toxicity LD 50
Procedure: Acute toxicity is assessed intraperitoneally on mice according to the method of Miller and Tainter described in Proc. Soc. Exp. Biol. Med. 57, 261, (1944).

CCC(C)(C)c1nn[nH]n1 [compound 1]
ED50 [1]: 100 mg/kg | LD50 [2]: > 400 mg/kg

CCCCC(C)(CC)c1nn[nH]n1 (centres unmarked) [compound 3]
ED50 [1]: 120 mg/kg | LD50 [2]: 320 mg/kg

CCCC(CCC)(CCC)c1nn[nH]n1 [compound 5]
ED50 [1]: 44 mg/kg | LD50 [2]: 280 mg/kg

CCCC(CCC)c1nn[nH]n1 [compound 6, [1-(1-n propyl)nbutyl] tetrazole]
ED50 [1]: 135 mg/kg | LD50 [2]: > 400 mg/kg
